Assay results as given in US20210038579A1, “Treatment Of Patients With Classic Fabry Disease” (Amicus Therapeutics, Inc., priority 2018, published 2021).
Positions count from the first letter of the chain named.

What was measured:
Experiment in all cases: HEK assay: α-Gal A activity in HEK-293 cell lysate with migalastat
Assay type in all cases: cell-based
[1] = target: T1, α-Gal A mutant form p.Asp264Tyr (c.790 G > T) (Homo sapiens, UniProt P06280, D264Y)
T1 construct: expressed in transfected cells; host or cells: HEK-293
T1 sequence (P06280 32-429 D264Y): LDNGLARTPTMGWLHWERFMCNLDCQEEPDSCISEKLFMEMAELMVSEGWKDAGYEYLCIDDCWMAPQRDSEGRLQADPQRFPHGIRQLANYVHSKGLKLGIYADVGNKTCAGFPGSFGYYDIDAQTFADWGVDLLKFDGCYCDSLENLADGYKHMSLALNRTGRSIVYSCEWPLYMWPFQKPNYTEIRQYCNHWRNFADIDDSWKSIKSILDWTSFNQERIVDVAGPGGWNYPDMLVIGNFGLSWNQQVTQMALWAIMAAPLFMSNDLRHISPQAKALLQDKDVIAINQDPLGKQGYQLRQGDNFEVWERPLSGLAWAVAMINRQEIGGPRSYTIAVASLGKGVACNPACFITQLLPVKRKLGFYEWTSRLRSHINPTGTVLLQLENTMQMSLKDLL
Procedure, shortened: (§1)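 HEK-293 cells are transfected transiently with cDNA for each missense or small in-frame indel α-Gal A mutant. They are cultured ±migalastat across 17 nM to 1 mM over 4 to 5 days, after which lysate enzyme is quantified fluorogenically (4-MU-α-Gal) or by immunoblot.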

[2] = target: T2, α-Gal A mutant form p.Ile253Thr (c.758 T > C) (Homo sapiens, UniProt P06280, I253T)
T2 construct: expressed in transfected cells; host or cells: HEK-293
T2 sequence (P06280 32-429 I253T): T1 sequence (P06280 32-429 D264Y) with I222T, Y233D
Procedure, shortened: as §1

[3] = target: T3, α-Gal A mutant form p.Asp322Glu (c.966 C > A) (Homo sapiens, UniProt P06280, D322E)
T3 construct: expressed in transfected cells; host or cells: HEK-293
T3 sequence (P06280 32-429 D322E): T1 sequence (P06280 32-429 D264Y) with Y233D, D291E
Procedure, shortened: as §1

[4] = target: T4, α-Gal A mutant form p.Leu243Phe (c.729 G > C) (Homo sapiens, UniProt P06280, L243F)
T4 construct: expressed in transfected cells; host or cells: HEK-293
T4 sequence (P06280 32-429 L243F): T1 sequence (P06280 32-429 D264Y) with L212F, Y233D
Procedure, shortened: as §1

[5] = target: T5, α-Gal A mutant form p.Arg301Gln (c.902 G > A) (Homo sapiens, UniProt P06280, R301Q)
T5 construct: expressed in transfected cells; host or cells: HEK-293
T5 sequence (P06280 32-429 R301Q): T1 sequence (P06280 32-429 D264Y) with Y233D, R270Q
Procedure, shortened: as §1

[6] = +10 μM migalastat, HEK-293 cell lysate, mean ± SEM, n = 20
[7] = HEK293, 10 μM migalastat minus baseline, read-out: Absolute increase at 10 μM (% WT)

`OC[C@H]1NC[C@H](O)[C@@H](O)[C@H]1O` [migalastat] was tested, and the “α-Gal A activity at 10 μM (fold over baseline)” value ([1]; 10 μM migalastat) was 12.89 fold over baseline, the “+Migalastat α-Gal A activity” value [1, 6] was 1842 ± 100 nmol/mg/h and the “+Migalastat α-Gal A activity % WT” value [1, 6] was 6.2 ± 0.3 % WT. For the same compound, the activation at 10 µM [1, 7] was 5.7%, the “α-Gal A activity at 10 μM (fold over baseline)” value ([2]; 10 μM migalastat) was 2.07 fold over baseline and the “+Migalastat α-Gal A activity” value [2, 6] was 23417 ± 1077 nmol/mg/h. The “+Migalastat α-Gal A activity % WT” value [2, 6] was 80.2 ± 5.9 % WT, the activation at 10 µM [2, 7] was 41.3% and the “α-Gal A activity at 10 μM (fold over baseline)” value ([3]; 10 μM migalastat) was 3.98 fold over baseline. For the same compound, the “+Migalastat α-Gal A activity” value [3, 6] was 9554 ± 667 nmol/mg/h, the “+Migalastat α-Gal A activity % WT” value [3, 6] was 26.8 ± 1.3 % WT and the activation at 10 µM [3, 7] was 20%. The “α-Gal A activity at 10 μM (fold over baseline)” value ([4]; 10 μM migalastat) was 5.33 fold over baseline, the “+Migalastat α-Gal A activity” value [4, 6] was 14370 ± 618 nmol/mg/h and the “+Migalastat α-Gal A activity % WT” value [4, 6] was 42.3 ± 1.4 % WT. For the same compound, the activation at 10 µM [4, 7] was 34.4%, the “α-Gal A activity at 10 μM (fold over baseline)” value ([5]; 10 μM migalastat) was 8.12 fold over baseline and the “+Migalastat α-Gal A activity” value [5, 6] was 15547 ± 353 nmol/mg/h. The “+Migalastat α-Gal A activity % WT” value [5, 6] was 44.5 ± 1.0 % WT and the activation at 10 µM [5, 7] was 39%.
